For 4 compounds, IC50 results are on record in ChEMBL document CHEMBL3102819, “Morpholylureas are a new class of potent and selective inhibitors of the type 5 17-β-hydroxysteroid dehydrogenase (AKR1C3)” (Bioorg Med Chem, 2014).

Residue numbers refer to the chain shown, from its start.

For assay [1], the target named is T1, Aldo-keto reductase family 1 member C3 (Homo sapiens, UniProt P42330).
T1 sequence (P42330 whole entry): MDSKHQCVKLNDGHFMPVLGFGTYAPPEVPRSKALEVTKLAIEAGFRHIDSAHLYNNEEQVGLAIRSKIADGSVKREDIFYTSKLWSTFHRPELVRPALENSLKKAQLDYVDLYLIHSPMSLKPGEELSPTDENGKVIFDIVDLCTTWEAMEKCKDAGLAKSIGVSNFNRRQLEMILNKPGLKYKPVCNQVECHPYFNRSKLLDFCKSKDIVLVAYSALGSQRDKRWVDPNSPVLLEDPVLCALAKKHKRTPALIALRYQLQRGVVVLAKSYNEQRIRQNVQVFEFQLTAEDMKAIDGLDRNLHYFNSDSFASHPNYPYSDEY
Nature of the assay: Inhibition of recombinant AKR1C3 (unknown origin) after 1 hr by competitive fluorescence assay.

In assay [2] the target is T1, Aldo-keto reductase family 1 member C3. In words: Inhibition of AKR1C3 (unknown origin) expressed in human HCT116 cells assessed as formation of PR-104H from PR-104A preincubated for 2 hrs. It is filed as cell-based, HCT-116.
The target of assay [3] is T2, Aldo-keto reductase family 1 member C1 (Homo sapiens, UniProt Q04828).
T2 sequence (Q04828 whole entry): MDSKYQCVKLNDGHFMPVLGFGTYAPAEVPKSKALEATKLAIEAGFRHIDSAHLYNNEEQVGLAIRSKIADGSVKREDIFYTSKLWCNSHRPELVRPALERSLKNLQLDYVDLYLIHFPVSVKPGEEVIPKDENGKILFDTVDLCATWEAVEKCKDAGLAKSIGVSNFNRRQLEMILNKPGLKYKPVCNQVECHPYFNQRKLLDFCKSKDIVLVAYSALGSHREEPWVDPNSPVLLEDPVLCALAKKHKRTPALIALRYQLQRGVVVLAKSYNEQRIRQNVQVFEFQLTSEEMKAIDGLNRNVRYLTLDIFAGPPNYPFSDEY
Nature of the assay: Inhibition of recombinant AKR1C1 (unknown origin) after 1 hr by competitive fluorescence assay.

Assay [4] has as its target T3, Aldo-keto reductase family 1 member C4 (Homo sapiens, UniProt P17516).
T3 sequence (P17516 whole entry): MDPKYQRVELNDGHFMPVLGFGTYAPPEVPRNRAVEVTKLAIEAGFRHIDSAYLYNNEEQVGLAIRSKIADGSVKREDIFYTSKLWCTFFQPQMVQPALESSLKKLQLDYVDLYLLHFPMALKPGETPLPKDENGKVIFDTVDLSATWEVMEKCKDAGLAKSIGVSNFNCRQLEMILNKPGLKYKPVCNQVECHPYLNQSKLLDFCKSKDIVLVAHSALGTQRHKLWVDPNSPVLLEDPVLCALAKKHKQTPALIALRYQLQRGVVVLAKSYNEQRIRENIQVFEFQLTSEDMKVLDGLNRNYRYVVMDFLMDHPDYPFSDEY
Nature of the assay: Inhibition of recombinant AKR1C4 (unknown origin) after 1 hr by competitive fluorescence assay.

Assay [5] addresses T4, Aldo-keto reductase family 1 member C2 (Homo sapiens, UniProt P52895).
T4 sequence (P52895 whole entry): T2 sequence (Q04828 whole entry) with T38V, R47H, L54V, C87S, V151M, R170H, Q172L
In words: Inhibition of recombinant AKR1C2 (unknown origin) after 1 hr by competitive fluorescence assay.

For orientation: IC50 means the concentration at which inhibition is half-maximal. Take `O=C(N1CCOCC1)N1CCN(c2ccc(C(F)(F)F)cc2)CC1`: the 50% inhibitory concentration (IC50) in assay [1] is 0.068 µM; in assay [2], 0.022 µM; in assay [3], over 30 µM; in assay [4], over 30 µM; in assay [5] it was over 30 µM.

Turning to `O=C(N1CCOCC1)N1CCN(c2ccc(Cl)cc2)CC1`, the IC50 in assay [1] was 0.11 µM; in assay [2] it was 0.018 µM; in assay [3], over 30 µM; in assay [4], over 30 µM; in assay [5] it was over 30 µM.

`O=C(N1CCOCC1)N1CCN(c2ccc(Br)cc2)CC1`: the IC50 in assay [1] is 0.14 µM; in assay [2], 0.012 µM; in assay [3], over 30 µM; in assay [4], over 30 µM; in assay [5] it was over 30 µM.

Regarding `O=C(N1CCOCC1)N1CCN(c2ccc(I)cc2)CC1`, the IC50 was 0.067 µM in assay [1]; 0.01 µM in assay [2]; over 30 µM in assay [3]; over 30 µM in assay [4]; over 30 µM in assay [5].
